Here are results for four compounds from US11465972B2, “Inhibitors of oxidized low-density lipoprotein receptor 1 and methods of use thereof” (United States Government as represented by the Department …, priority 2015, dated 2022).

Data set [1] concerns the target human LOX-1 (Homo sapiens, UniProt P78380). The data set is described as follows: Thermal shift assay with purified LOX-1 protein. The settings on record: for thermal shift (in words): differential scanning fluorimetry; for thermal shift of LOX-1 protein: LOX-1 protein 4 μM, ligand 50 μM, shifts in Celsius. Also noted: It encodes for 147 amino acids for the LOX-1 fragment (residues 136-273); made in house; host or cells: E. coli BL21 (DE3), co-expressed with DsbC. Format: binding. The source says:
FIG. 2A, FIG. 2B and FIG. 2C depict the docking of the 5 lead compounds and the thermal denaturation assay: (FIG. 2A) The figure depicts the docking of the 5 lead compounds in the binding pocket of LOX-1. LOX-1 is shown as a ribbon model with one monomer in magenta and the other in blue. The compounds are shown as stick models in separate colors. (FIG. 2B) Hydrogen bonding interactions of the compounds as they dock to LOX-1. (FIG. 2C) The measured thermal shifts (in Celsius) are depicted for all five molecules. The solutions contained LOX-1 protein at 4 μM concentration. The ligand concentrations were 50 μM.
As the next step, a protein assay was performed to assess the interaction of the lead compounds with LOX-1 protein for an additional confirmation of the binding to LOX1. The extracellular domain of LOX-1 was expressed and the protein was purified. Using the purified protein, a thermal shift assay was performed. The technique involves measuring thermal denaturation temperatures of the protein in the presence and absence of inhibitors. A larger shift in thermal denaturation is indicative of a tight binding of the ligand to the protein.
In short, the thermal shift assay was performed using a real-time PCR detection system with the fluorescent dye sypro orange to monitor protein unfolding. Fluorescence increases upon protein unfolding because sypro orange has higher quantum in lower dielectric medium and low quantum in higher dielectric medium. During the thermal shift assay a protein exposes the hydrophobic region which corresponds to a lower dielectric environment. The thermal shift assay instrument contains accurate temperature control devices and a CCD detector for simultaneous imaging of fluorescence changes in the microplate. The typical reaction volume of a thermal shift assay is 20 μl, which includes the protein solution, the test compound solution, and the sypro orange. The temperature in the real-time PCR machine during the thermal shift assay was ramped 0.5° C./minute till 100° C.
The C-terminal domain of LOX-1 was expressed by using the protocols reported earlier^12. As this domain contains several disulfide bridges, it was co-expressed with DsbC, a Chaperone disulfide isomerase. The genes were custom synthesized by Genscript (Piscataway, N.J.) using gene map described in Park el al^12. It encodes for 147 amino acids for the LOX-1 fragment (residues 136-273) and 236 amino acids for DsbC. The gene was incorporated into a pET15b vectors by Genscript. The vectors were then transformed into Dh5α cells for amplification and BL21 (DE3) E. coli (Novagen) cells for expression. The proteins were expressed by adding 0.4 mM isopropyl β-D-thiogalactoside in E. coli cells grown in LB medium containing kanamycin, tetracycline, and carbenicillin at 23° C., with 250 rpm agitation, for 20 h. The protein was purified using a nickel-nitrilotriacetic acid column (Qiagen, Valencia, Calif.). And then, the protein samples were concentrated to 10 mg/ml.
LOX-1 protein was incubated with fluorescent dye Sypro Orange (Invitrogen/Life Technologies, Grand Island, N.Y.) and the thermal unfolding of the LOX-1 protein was monitored by measuring the fluorescence using Bio-Rad Real Time PCR machine. We measured the melting temperatures in the absence and presence of the inhibitors 4 tM of LOX-1 protein was incubated with Sypro Orange and heated in stepwise increments of 0.5° C. per min from 25-99° C. The wavelength for excitation was set to 490 and emission was set to 575 nm for Sypro Orange. Fluorescence was measured after every minute for each 0.5° C. increase.
(In general: DSF heats the sample and reads unfolding from a dye or from intrinsic fluorescence.)

For data set [2], the system named is VCAM-1 mRNA. Description: ox-LDL-induced VCAM-1 mRNA expression in HUVECs (q-PCR). Format: cell-based, human. To be noted: 5 μg/mL ox-LDL for 6 hrs. The protocol: FIG. 4A, FIG. 4B, FIG. 4C, FIG. 4D and FIG. 4E depict the effect of lead molecules on ox-LDL-induced the activation of MAPKs in HUVECs, VCAM-1 expression and monocyte adhesion onto HUVECs. […] (FIG. 4B) Western blot analyses showing phospho-p38MAPK expression in HUVECs following exposure to 200 nM of each compound for 30 min, and subsequently exposed to 5 μg/mL ox-LDL for 6 hours. […] (FIG. 4D) The variation of VCAM-1 mRNA expression levels with different concentrations of the led compounds. The concentrations are indicated on the X-axis and the VCAM-1 mRNA levels are shown on the Y-axis. The plots for all five molecules are shown in separate colors. […]
It is known that the activation of LOX-1 by ox-LDL in endothelial cells stimulates the expression of leukocyte adhesion molecules^26. In this study, VCAM-1 expression in HUVECs in the presence of 5 μg/ml ox-LDL was measured. […] VCAM-1 mRNA expression in HUVECs exposed to 5 μg/mL ox-LDL for 6 hrs was also measured.
HUVECs were plated into 12-well plates, and treated with 0, 20, 200 and 2000 nM of each of 5 molecules […] for 30 min, and subsequently exposed to […] ox-LDL for 6 h at 37° C. […] Data was analyzed by using MX3000P software. Relative mRNA expression was quantified using the comparative threshold cycle (Ct) method. […]

Data set [3] is described as follows: Liver microsomal stability, human. To be noted: human liver microsomes. Format: in vitro ADME. The protocol: Metabolic stability or clearance is recognized as one of the main determinants of drug concentration in blood. The metabolic stability of Mol-5 was tested using liver microsomes form mice and humans to obtain stability ranking and intrinsic clearance.
(Liver microsomes are vesicles of endoplasmic reticulum, rich in cytochrome P450 enzymes.)

Entries after “also recorded” stand apart in the source; their conditions may differ.

For the compound `CCOCCCNC(=O)CCN1C(=O)COc2ccccc21` [Mol-1], in data set [1], the “thermal shift (in words)” value is given as “did not show measurable shifts”.
Same read-out and setting: then `CC(C)(C)C(=O)NCCc1nc2ccccc2n1Cc1ccccc1F` [Mol-2], with “did not show measurable shifts”.
For the compound `CCCn1c(CCNC(=O)CCCO)nc2ccccc21` [Mol-4], the “effect on ox-LDL-mediated VCAM-1 mRNA upregulation” value in data set [2] is “significantly reduced; also recorded: significantly inhibited”. Also, in data set [1], the “thermal shift of LOX-1 protein” value amounted to 10 ° and the “thermal shift (in words)” value is on record as “significant thermal shift”.
For `Cc1cc(C)n(CC(O)COc2ccccc2)n1` (centres unmarked) [Mol-5, 1-(3,5-dimethyl-1H-pyrazol-1-yl)-3-phenoxypropan-2-ol], the “effect on ox-LDL-mediated VCAM-1 mRNA upregulation” value in data set [2] is reported as “significantly reduced; also recorded: significantly inhibited”. For the same compound, in data set [3], the half-life (as a rule, how long it takes for the measured level to halve) is 55.3 ± 2.2 min; the “metabolic stability (in words)” value is recorded as “reasonable stability”; the microsomal CLint (as a rule, the rate of metabolic loss divided by the concentration) is 25.1 ± 1 µL/min/mg. In data set [1], the “thermal shift of LOX-1 protein” value worked out at 4 ° and the “thermal shift (in words)” value is given as “significant thermal shift”.
